Assay [1] addresses T1, hP2X2/3H (Homo sapiens, UniProt P56373+Q9UBL9).
T1 construct: expressed in transfected cells; host or cells: e.g. HEK293 or 1321N1
T1 sequence (Q9UBL9 1-471): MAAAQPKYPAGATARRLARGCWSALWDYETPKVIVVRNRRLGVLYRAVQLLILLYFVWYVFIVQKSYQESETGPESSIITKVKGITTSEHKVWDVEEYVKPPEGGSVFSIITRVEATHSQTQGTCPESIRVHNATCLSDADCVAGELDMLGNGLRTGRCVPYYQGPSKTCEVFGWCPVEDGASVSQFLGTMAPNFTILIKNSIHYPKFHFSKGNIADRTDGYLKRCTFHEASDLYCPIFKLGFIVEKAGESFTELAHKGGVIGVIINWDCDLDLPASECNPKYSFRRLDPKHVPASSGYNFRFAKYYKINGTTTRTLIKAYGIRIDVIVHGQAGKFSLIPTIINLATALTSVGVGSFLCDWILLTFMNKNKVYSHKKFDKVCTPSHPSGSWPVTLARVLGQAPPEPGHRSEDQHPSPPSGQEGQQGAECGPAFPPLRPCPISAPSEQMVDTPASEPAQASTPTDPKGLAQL
T1 sequence (P56373 1-397): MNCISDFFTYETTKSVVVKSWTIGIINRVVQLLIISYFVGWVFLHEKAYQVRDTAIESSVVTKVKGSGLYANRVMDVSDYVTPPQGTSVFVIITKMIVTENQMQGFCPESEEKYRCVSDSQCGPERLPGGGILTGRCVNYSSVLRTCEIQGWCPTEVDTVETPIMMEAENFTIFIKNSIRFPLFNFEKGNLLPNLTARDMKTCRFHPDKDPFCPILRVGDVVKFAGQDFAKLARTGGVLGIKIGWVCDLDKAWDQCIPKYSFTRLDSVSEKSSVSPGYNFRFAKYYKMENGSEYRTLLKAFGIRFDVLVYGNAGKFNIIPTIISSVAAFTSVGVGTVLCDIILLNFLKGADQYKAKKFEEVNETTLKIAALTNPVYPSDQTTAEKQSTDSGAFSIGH
As to the kind of experiment: Calcium uptake assay (P2X antagonist assay), P2X2/3 heteromer. It is filed as cell-based. Conditions: Ca influx (calcium uptake assay), hP2X2/3H; read-out: IC50 hP2X2/3H. The method, boiled down:
(§1)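 Stably or transiently transfected HEK293 or 1321N1 cells; the heteromer is made by adding P2X3 to a P2X2-stable line, with heteromer function isolated pharmacologically. The peak-minus-baseline FLIPR calcium signal gives % inhibition and a 4-parameter-logistic IC50.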

In assay [2] the target is T2, hP2X3 (Homo sapiens, UniProt P56373).
T2 construct: expressed in transfected cells; host or cells: e.g. HEK293 or 1321N1
T2 sequence (P56373 1-397): T1 sequence (P56373 1-397)
Kind of assay: Calcium uptake assay (P2X antagonist assay), P2X3 homomer. It is filed as cell-based. The settings on record: Ca influx (calcium uptake assay), hP2X3; read-out: IC50 hP2X3. A digest of the protocol: as §1

Structures are written as SMILES. pIC50: −log10 of the molar value.

`COCc1cc(C(=O)NCc2cnc(C)nc2)cc(-c2ccc(C)cn2)c1` [Compound 275]: the results for the pIC50 in assay [1] and in assay [2] were 6.00 to 6.30 and 6.30 to 7.00, respectively.
As for `Cc1ccc(-c2cc(C(=O)N[C@H](C)c3ccc(C)nc3)cc(C(O)c3ccccc3)c2)nc1` (some centres unmarked) [Compound 276], the pIC50 in assay [1] and in assay [2] was more than 7.00 throughout.
On to `Cc1ccc(-c2cc(C(=O)N[C@H](C)c3cnc(C)nc3)cc(C(O)c3ccccc3)c2)nc1` (some centres unmarked) [Compound 277], for which the pIC50 in assay [1] and in assay [2] was more than 7.00 in each case.
For the molecule `Cc1ccc(-c2cc(C(=O)N[C@H](C)c3cnc(C)nc3)cc(C(O)c3ccccc3)c2)c(C#N)c1` (some centres unmarked) [Compound 278], the pIC50 in assay [1] and in assay [2] was more than 7.00 in each case.
`Cc1ccc(-c2cc(C(=O)N[C@H](C)c3ccc(C)nc3)cc(C(O)c3ccccc3)c2)c(C#N)c1` (some centres unmarked) [Compound 279]: the pIC50 in assay [1] and in assay [2] was more than 7.00 in each case.
Consider `Cc1ccc(-c2cc(C(=O)N[C@H](C)c3ccc(C)nc3)cc(C(O)c3nccs3)c2)cc1` (stereo partly drawn) [Compound 280, 5-(Hydroxy(thiazol-2-yl)methyl)-4′-methyl-N—((R)-1-(6-methylpyridin-3-yl)ethyl)biphenyl-3-carboxamide], for which the pIC50 in assay [1] and in assay [2] was more than 7.00 each time.
`Cc1ccc(-c2cc(C(=O)N[C@@H](C)CO)cc(S(=O)(=O)CC(C)C)c2)cc1` [Compound 281]: the pIC50 in assay [1] was less than 6.00; in assay [2], more than 7.00.
The matching figures for `Cc1ccc(-c2cc(C(=O)N[C@@H](C)CO)cc(S(=O)(=O)C3CCCC3)c2)cc1` [Compound 282]: less than 6.00 and more than 7.00.
Take `Cc1ccc(-c2cc(C(=O)N[C@H](C)c3cnc(C)nc3)cc(C(O)c3nccs3)c2)cc1` (some centres unmarked) [Compound 283]: the pIC50 in assay [1] and in assay [2] was more than 7.00 each time.
In the case of `Cc1ccc(-c2cc(C(=O)N[C@H](C)c3ccc(C)nc3)cc(C(O)c3ccccn3)c2)c(C#N)c1` (some centres unmarked) [Compound 284], the pIC50 in assay [1] and in assay [2] was more than 7.00 in each case.
Take `Cc1ccc(-c2cc(C(=O)N[C@H](C)c3cnc(C)nc3)cc(C(O)c3ccccn3)c2)c(C#N)c1` (some centres unmarked) [Compound 285]: the pIC50 in assay [1] and in assay [2] was more than 7.00 each time.
In the case of `Cc1ccc(-c2cc(C(=O)N[C@H](C)c3cnc(C)nc3)cc(C(O)c3ccccn3)c2)nc1` (some centres unmarked) [Compound 286], the pIC50 in assay [1] and in assay [2] was more than 7.00 each time.
As to `Cc1ccc(-c2cc(C(=O)N[C@H](C)c3ccc(C)nc3)cc(C(O)c3ccccn3)c2)nc1` (some centres unmarked) [Compound 287], the pIC50 in assay [1] and in assay [2] was more than 7.00 throughout.
In the case of `Cc1ccc(-c2cc(C(=O)N[C@@H](C)CO)cc(S(=O)(=O)C(C)C)c2)cc1` [Compound 288], the pIC50 in assay [1] was less than 6.00; in assay [2], more than 7.00.
In the same order, the values of `Cc1ccc(-c2cc(C(=O)N[C@H](C)c3ccc(C)nc3)cc(C(O)CO)c2)cc1` (some centres unmarked) [Compound 289] are more than 7.00 and more than 7.00.
As to `Cc1ccc(-c2cc(CO)cc(C(=O)N[C@H](C)c3ccc(C)nc3)c2)c(C#N)c1` [Compound 290, (R)-2′-Cyano-5-(hydroxymethyl)-4′-methyl-N-(1-(6-methylpyridin-3-yl)ethyl)biphenyl-3-carboxamide], the pIC50 in assay [1] and in assay [2] was more than 7.00 throughout.
For `Cc1ccc(-c2cc(C(=O)N[C@H](C)c3ccc(C)nc3)cc(C(O)c3nccs3)c2)nc1` (some centres unmarked) [Compound 291], the pIC50 in assay [1] and in assay [2] was more than 7.00 in each case.
Consider `Cc1ccc(-c2cc(C(=O)N[C@H](C)c3cnc(C)nc3)cc(C(O)c3nccs3)c2)nc1` (some centres unmarked) [Compound 292], for which the pIC50 in assay [1] and in assay [2] was more than 7.00 in each case.
For `Cc1ccc(-c2cc(C(=O)N[C@H](C)c3cnc(C)nc3)cc(C(O)c3nccs3)c2)c(C#N)c1` (some centres unmarked) [Compound 293], the pIC50 in assay [1] and in assay [2] was more than 7.00 each time.
As to `Cc1ccc(-c2cc(C(=O)N[C@H](C)c3ccc(C)nc3)cc(C(O)c3nccs3)c2)c(C#N)c1` (some centres unmarked) [Compound 294], the pIC50 in assay [1] and in assay [2] was more than 7.00 throughout.
`Cc1ccc(-c2cc(C(=O)N[C@H](C)c3ccc(C)nc3)cc(C(O)C(F)(F)F)c2)c(C#N)c1` (stereo partly drawn) [Compound 295, 2′-Cyano-4′-methyl-N—((R)-1-(6-methylpyridin-3-yl)ethyl)-5-(2,2,2-trifluoro-1-hydroxyethyl)biphenyl-3-carboxamide]: the pIC50 in assay [1] and in assay [2] was more than 7.00 in each case.
Take `Cc1ccc(-c2cc(C(=O)NCc3ccc(C)nc3)cc(C(O)C(F)(F)F)c2)c(C#N)c1` (centres unmarked) [Compound 296]: the pIC50 in assay [1] and in assay [2] was more than 7.00 in each case.
For `Cc1ccc(-c2cc(C(=O)NCc3ccc(C)nc3)cc(C(O)CO)c2)c(C#N)c1` (centres unmarked) [Compound 297, 2′-Cyano-5-(1,2-dihydroxyethyl)-4′-methyl-N-((6-methylpyridin-3-yl)methyl)biphenyl-3-carboxamide], the pIC50 in assay [1] was 6.30 to 7.00; in assay [2] it was more than 7.00.
The matching figures for `Cc1ccc(-c2cc(C(=O)N[C@H](C)c3ccc(C)nc3)cc(C(O)CO)c2)c(C#N)c1` (some centres unmarked) [Compound 298]: more than 7.00 and more than 7.00.
For the molecule `COCC(C)Oc1cc(C(=O)N[C@H](C)c2ccc(C)nc2)cc(-c2ccc(C)cc2)c1` (some centres unmarked) [Compound 299], the pIC50 in assay [1] and in assay [2] was more than 7.00 throughout.
With `COCC(C)Oc1cc(C(=O)NCc2ccc(C)nc2)cc(-c2ccc(C)cc2)c1` (centres unmarked) [Compound 300], the pIC50 in assay [1] and in assay [2] was more than 7.00 throughout.
On to `Cc1ccc(-c2cc(OCCO)cc(C(=O)NCc3ccc(C)nc3)c2)cc1` [Compound 301], for which the figures for the pIC50 in assay [1] and in assay [2] were 6.30 to 7.00 and more than 7.00, respectively.
In the same order, the values of `Cc1ccc(-c2cc(OCCO)cc(C(=O)N[C@H](C)c3ccc(C)nc3)c2)cc1` [Compound 302] are more than 7.00 and more than 7.00.
For `Cc1ccc(-c2cc(CO)cc(C(=O)N[C@H](C)c3cnc(C)nc3)c2)c(C#N)c1` [Compound 303], the pIC50 in assay [1] is 6.30 to 7.00; in assay [2], more than 7.00.
For the molecule `Cc1ccc(-c2cc(CO)cc(C(=O)NCc3cnc(C)nc3)c2)c(C#N)c1` [Compound 304], the pIC50 in assay [1] was 6.30 to 7.00; in assay [2] it was more than 7.00.
On to `Cc1ccc(-c2cc(OCCO)cc(C(=O)N[C@H](C)c3ccc(C)nc3)c2)c(C#N)c1` [Compound 305], for which the pIC50 in assay [1] and in assay [2] was more than 7.00 in each case.
In the case of `Cc1ccc(-c2cc(CO)cc(C(=O)NCc3ccc(C)nc3)c2)c(C#N)c1` [Compound 306], the pIC50 in assay [1] was 6.30 to 7.00; in assay [2], more than 7.00.
The matching figures for `Cc1ccc(-c2cc(C(=O)NCc3cnc(C)nc3)cc(S(C)(=O)=O)c2)nc1` [Compound 307]: less than 6.00 and more than 7.00.
The matching figures for `Cc1ccc(-c2cc(OC3CCOC3)cc(C(=O)N[C@H](C)c3ccc(C)nc3)c2)cc1` (stereo partly drawn) [Compound 308, 4′-Methyl-N—((R)-1-(6-methylpyridin-3-yl)ethyl)-5-(tetrahydrofuran-3-yloxy)biphenyl-3-carboxamide]: more than 7.00 and more than 7.00.
In the same order, the values of `Cc1ccc(-c2cc(OCC3CCOC3)cc(C(=O)N[C@H](C)c3ccc(C)nc3)c2)cc1` (some centres unmarked) [Compound 309] are more than 7.00 and 6.30 to 7.00.
Take `Cc1ccc(-c2cc(OCC3CCCO3)cc(C(=O)N[C@H](C)c3ccc(C)nc3)c2)cc1` (stereo partly drawn) [Compound 310, 4′-Methyl-N—((R)-1-(6-methylpyridin-3-yl)ethyl)-5-((tetrahydrofuran-2-yl)methoxy)biphenyl-3-carboxamide]: the pIC50 in assay [1] and in assay [2] was more than 7.00 in each case.
Regarding `Cc1ccc(-c2cc(C(=O)N[C@H](C)c3ccc(C)nc3)cc(C(C)O)c2)c(C#N)c1` (some centres unmarked) [Compound 311], the pIC50 in assay [1] and in assay [2] was more than 7.00 in each case.
In the case of `Cc1ccc(-c2cc(OCC3CCCO3)cc(C(=O)N[C@H](C)c3ccc(C)nc3)c2)c(C#N)c1` (some centres unmarked) [Compound 312], the pIC50 in assay [1] and in assay [2] was more than 7.00 each time.
For `Cc1ccc(-c2cc(OCC3CCOC3)cc(C(=O)N[C@H](C)c3ccc(C)nc3)c2)c(C#N)c1` (some centres unmarked) [Compound 313], the pIC50 in assay [1] and in assay [2] was more than 7.00 throughout.
Take `Cc1ccc(-c2cc(OC3CCOC3)cc(C(=O)N[C@H](C)c3ccc(C)nc3)c2)c(C#N)c1` (some centres unmarked) [Compound 314]: the pIC50 in assay [1] and in assay [2] was more than 7.00 throughout.

For the origin of these results see US8946439B2, “Amide compounds, compositions and uses thereof” (Evotec AG, priority 2008, dated 2015).
